Activity calls are given as the source filed them. The rule behind the calls is not given here.
Tests used:
Rattus norvegicus [1] = experiment: Cardiotoxicity in Wistar rat assessed as effect on PQ interval time at 5 mg/kg, iv measured after 5 mins (reference value: 52 to 57 ms); assay type: toxicity, organism-based; conditions: in vivo
[2] = biological target: T1, Adrenergic receptor alpha-1 (Rattus norvegicus) (UniProt P15823+P23944+P43140); experiment: Antagonist activity at adrenergic alpha1 receptor in isolated Wistar rat aorta assessed as inhibition of […] contraction incubated for 20 mins
Rattus norvegicus [3] = experiment: Cardiotoxicity in Wistar rat assessed as effect on heart rate at 5 mg/kg, iv measured after 15 mins (reference value: 323 to 374.5 bpm); assay type: toxicity, organism-based; conditions: in vivo, 0.25 h
Rattus norvegicus [4] = experiment: Hypotensive activity in normotensive Wistar rat assessed as diastolic blood pressure at 1 mg/kg, iv measured after 30 mins (reference value: 88.4 to 122.7 mmHg); assay type: functional
Rattus norvegicus [5] = experiment: Hypotensive activity in normotensive Wistar rat assessed as diastolic blood pressure at 1 mg/kg, iv measured after 5 mins (reference value: 88.4 to 122.7 mmHg); assay type: functional
Rattus norvegicus [6] = experiment: Hypotensive activity in normotensive Wistar rat assessed as diastolic blood pressure at 1 mg/kg, iv measured after 10 mins (reference value: 88.4 to 122.7 mmHg); assay type: functional
Rattus norvegicus [7] = experiment: Hypotensive activity in normotensive Wistar rat assessed as systolic blood pressure at 1 mg/kg, iv measured after 30 mins (reference value: 122.4 to 156.5 mmHg); assay type: functional
Rattus norvegicus [8] = experiment: Hypotensive activity in normotensive Wistar rat assessed as diastolic blood pressure at 1 mg/kg, iv measured after 20 mins (reference value: 88.4 to 122.7 mmHg); assay type: functional
Rattus norvegicus [9] = experiment: Hypotensive activity in normotensive Wistar rat assessed as systolic blood pressure at 1 mg/kg, iv measured after 20 mins (reference value: 122.4 to 156.5 mmHg); assay type: functional
Rattus norvegicus [10] = experiment: Hypotensive activity in normotensive Wistar rat assessed as systolic blood pressure at 1 mg/kg, iv measured after 60 mins (reference value: 122.4 to 156.5 mmHg); assay type: functional
[11] = biological target: Beta-1 adrenergic receptor (Rattus norvegicus, UniProt P18090); experiment: Displacement of [3H]-CGP-12177 from adrenergic beta1 receptor in Wistar rat cortex incubated for 60 mins by microbeta liquid scintillation counting analysis
Rattus norvegicus [12] = experiment: Hypotensive activity in normotensive Wistar rat assessed as diastolic blood pressure at 5 mg/kg, iv measured after 20 mins (reference value: 86.5 to 119.4 mmHg); assay type: functional
Rattus norvegicus [13] = experiment: Cardiotoxicity in Wistar rat assessed as effect on QTC interval time at 5 mg/kg, iv measured after 5 mins (reference value: 136.7 to 146.2 ms); assay type: toxicity, organism-based; conditions: in vivo
Rattus norvegicus [14] = experiment: Hypotensive activity in normotensive Wistar rat assessed as diastolic blood pressure at 1 mg/kg, iv measured after 60 mins (reference value: 88.4 to 122.7 mmHg); assay type: functional
Rattus norvegicus [15] = experiment: Hypotensive activity in normotensive Wistar rat assessed as diastolic blood pressure at 5 mg/kg, iv measured after 30 mins (reference value: 86.5 to 119.4 mmHg); assay type: functional
Rattus norvegicus [16] = experiment: Hypotensive activity in normotensive Wistar rat assessed as systolic blood pressure at 1 mg/kg, iv measured after 5 mins (reference value: 122.4 to 156.5 mmHg); assay type: functional
Rattus norvegicus [17] = experiment: Hypotensive activity in normotensive Wistar rat assessed as diastolic blood pressure at 5 mg/kg, iv measured after 10 mins (reference value: 86.5 to 119.4 mmHg); assay type: functional
Rattus norvegicus [18] = experiment: Hypotensive activity in normotensive Wistar rat assessed as systolic blood pressure at 5 mg/kg, iv measured after 30 mins (reference value: 119.2 to 148.6 mmHg); assay type: functional
Rattus norvegicus [19] = experiment: Hypotensive activity in normotensive Wistar rat assessed as reduction in systolic blood pressure at 1 mg/kg, iv measured over 40th min relative to control; assay type: functional; parameters: scale not given: the % may be the effect or the level left
Rattus norvegicus [20] = experiment: Cardiotoxicity in Wistar rat assessed as effect on QRS interval time at 5 mg/kg, iv measured after 5 mins (reference value: 16.7 to 20.7 ms); assay type: toxicity, organism-based; conditions: in vivo
Rattus norvegicus [21] = experiment: Cardiotoxicity in Wistar rat assessed as effect on heart rate at 5 mg/kg, iv measured after 1 min (reference value: 323 to 374.5 bpm); assay type: toxicity, organism-based; conditions: in vivo
Rattus norvegicus [22] = experiment: Hypotensive activity in normotensive Wistar rat assessed as systolic blood pressure at 1 mg/kg, iv measured after 10 mins (reference value: 122.4 to 156.5 mmHg); assay type: functional
[23] = biological target: Beta-2 adrenergic receptor (Cavia porcellus, UniProt Q8K4Z4); experiment: Antagonist activity at adrenergic beta2 receptor in isolated guinea pig trachea assessed as inhibition of isoprenaline-induced bronchodilation incubated for 20 mins; assay type: functional; conditions: read-out: pA2 (converted)
Rattus norvegicus [24] = experiment: In vivo inhibition of beta adrenoceptor in Wistar rat assessed as reduction in isoprenaline-induced tachycardia at 5 mg/kg, iv administered as single dose 10 mins prior to isoprenaline injection; assay type: functional, organism-based
Rattus norvegicus [25] = experiment: Hypotensive activity in normotensive Wistar rat assessed as reduction in systolic blood pressure at 1 mg/kg, iv measured over 30 mins relative to control; assay type: functional; parameters: scale not given: the % may be the effect or the level left
Rattus norvegicus [26] = experiment: Hypotensive activity in normotensive Wistar rat assessed as reduction in diastolic blood pressure at 1 mg/kg, iv measured over 30 mins relative to control; assay type: functional; parameters: scale not given: the % may be the effect or the level left
Rattus norvegicus [27] = experiment: Hypotensive activity in normotensive Wistar rat assessed as reduction in diastolic blood pressure at 0.5 mg/kg, iv measured over 30 mins relative to control; assay type: functional; parameters: scale not given: the % may be the effect or the level left
Rattus norvegicus [28] = experiment: Hypotensive activity in normotensive Wistar rat assessed as systolic blood pressure at 0.5 mg/kg, iv measured after 20 mins (reference value: 116 +/- 4.6 mmHg); assay type: functional
Rattus norvegicus [29] = experiment: Antiarrhythmic activity in Wistar rat assessed as inhibition of adrenaline-induced premature ventricular extrasystoles administered iv 15 mins prior to adrenaline challenge; assay type: functional
Rattus norvegicus [30] = experiment: Hypotensive activity in normotensive Wistar rat assessed as systolic blood pressure at 0.5 mg/kg, iv measured after 5 mins (reference value: 116 +/- 4.6 mmHg); assay type: functional
Rattus norvegicus [31] = experiment: Hypotensive activity in normotensive Wistar rat assessed as diastolic blood pressure at 2.5 mg/kg, iv measured after 60 mins (reference value: 116.2 +/- 1.2 mmHg); assay type: functional
[32] = biological target: T1, Adrenergic receptor alpha-1 (Rattus norvegicus); experiment: Displacement of [3H][…]prazosin from adrenergic alpha1 receptor in Wistar rat cortex at 10^-5 M incubated for 30 mins by microbeta liquid scintillation counting analysis
Rattus norvegicus [33] = experiment: Hypotensive activity in normotensive Wistar rat assessed as systolic blood pressure at 2.5 mg/kg, iv measured after 30 mins (reference value: 148.5 +/- 2.6 mmHg); assay type: functional
Rattus norvegicus [34] = experiment: Hypotensive activity in normotensive Wistar rat assessed as diastolic blood pressure at 2.5 mg/kg, iv measured after 30 mins (reference value: 116.2 +/- 1.2 mmHg); assay type: functional
Rattus norvegicus [35] = experiment: Hypotensive activity in normotensive Wistar rat assessed as reduction in systolic blood pressure administered iv measured after 60 mins; assay type: functional; parameters: scale not given: the % may be the effect or the level left
Blood = experiment: Anti-aggregative activity in Wistar rat whole blood assessed as inhibition of collagen/adrenaline-induced aggregation preincubated for 3 mins followed by collagen induction measured for 6 mins; assay type: functional, tissue-based
Rattus norvegicus [36] = experiment: Cardiotoxicity in Wistar rat assessed as effect on heart rate at 1 mg/kg, iv measured after 15 mins (reference value: 320.6 +/- 8.1 bpm); assay type: toxicity, organism-based; conditions: in vivo, 0.25 h

Beta-1 adrenergic receptor, sequence (P18090 whole entry): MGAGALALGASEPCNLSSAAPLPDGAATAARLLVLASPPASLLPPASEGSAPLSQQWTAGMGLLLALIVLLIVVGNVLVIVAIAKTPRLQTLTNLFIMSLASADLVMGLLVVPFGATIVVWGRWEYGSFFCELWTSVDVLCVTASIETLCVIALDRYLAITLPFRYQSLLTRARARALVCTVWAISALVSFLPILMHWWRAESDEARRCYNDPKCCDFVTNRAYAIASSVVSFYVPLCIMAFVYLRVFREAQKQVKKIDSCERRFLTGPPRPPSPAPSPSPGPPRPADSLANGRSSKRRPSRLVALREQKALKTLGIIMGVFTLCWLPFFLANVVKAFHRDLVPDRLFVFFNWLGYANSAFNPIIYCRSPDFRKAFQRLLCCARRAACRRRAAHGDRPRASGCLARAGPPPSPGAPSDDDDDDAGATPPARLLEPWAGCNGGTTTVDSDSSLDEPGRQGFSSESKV
Beta-2 adrenergic receptor, sequence (Q8K4Z4 whole entry): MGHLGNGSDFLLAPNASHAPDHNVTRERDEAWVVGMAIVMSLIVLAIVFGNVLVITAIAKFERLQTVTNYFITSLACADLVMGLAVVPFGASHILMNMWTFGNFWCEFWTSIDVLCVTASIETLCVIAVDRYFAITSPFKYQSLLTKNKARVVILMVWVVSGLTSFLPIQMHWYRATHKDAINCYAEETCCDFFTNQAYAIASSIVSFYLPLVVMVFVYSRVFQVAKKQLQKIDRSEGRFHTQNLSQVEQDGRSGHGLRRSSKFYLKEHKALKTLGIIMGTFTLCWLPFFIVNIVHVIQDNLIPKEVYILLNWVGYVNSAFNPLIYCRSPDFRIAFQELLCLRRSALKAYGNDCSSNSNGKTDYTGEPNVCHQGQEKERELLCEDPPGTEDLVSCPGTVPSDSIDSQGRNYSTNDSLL

Ki [11] | Structure (SMILES) | Time (Rattus norvegicus [1]) | Activity (Rattus norvegicus [3]) | Activity (Rattus norvegicus [4]) | Activity (Rattus norvegicus [5]) | Activity (Rattus norvegicus [6]) | Activity (Rattus norvegicus [7]) | Activity (Rattus norvegicus [8]) | Activity (Rattus norvegicus [9]) | Activity (Rattus norvegicus [10]) | Activity (Rattus norvegicus [12]) | Time (Rattus norvegicus [13]) | Activity (Rattus norvegicus [14]) | Activity (Rattus norvegicus [15]) | Activity (Rattus norvegicus [16]) | Activity (Rattus norvegicus [17]) | Activity (Rattus norvegicus [18]) | Time (Rattus norvegicus [20]) | Activity (Rattus norvegicus [21]) | Activity (Rattus norvegicus [22]) | further results
1570 nM | Cl.O=c1c2ccccc2oc2cc(OCC(O)CN3CCN(c4ccccn4)CC3)ccc12 (racemic) | 54.7 ms | 295.3 bpm | 100.2 mmHg | 107.5 mmHg | 107 mmHg | 127.2 mmHg | 103.8 mmHg | 131 mmHg | 122.7 mmHg | 80.3 mmHg | 133.3 ms | 94.2 mmHg | 79.5 mmHg | 138.3 mmHg | 80.5 mmHg | 108.7 mmHg | 20 ms | 340.7 bpm | 136 mmHg | pKb [2]: 8.2; Activity (Rattus norvegicus [19]): 8 - 10%
852 nM | COc1ccccc1OCCNCC(O)COc1cccc2c(=O)c3ccccc3oc12.Cl (racemic) | 58 ms | 308.7 bpm | 81.6 mmHg | 85.4 mmHg | 82.8 mmHg | 112.4 mmHg | 84 mmHg | 114.8 mmHg | 106.8 mmHg | 71.5 mmHg | 148.3 ms | 75.6 mmHg | 77.2 mmHg | 119.6 mmHg | 73 mmHg | 94.5 mmHg | 19.3 ms | 307 bpm | 114.8 mmHg | pKb [2]: 8.34; Kb [23]: 18.1 nM; inhibition (Rattus norvegicus [24]): Active; IC50 [11]: 178 nM; Activity (Rattus norvegicus [25]): 6 - 13%; Activity (Rattus norvegicus [26]): 7 - 14%
213 nM | Cl.O=c1c2ccccc2oc2c(OCC(O)CN3CCN(c4ccccn4)CC3)cccc12 (racemic) | 58 ms | 343 bpm | 110.5 mmHg | 111.7 mmHg | 113.5 mmHg | 140 mmHg | 133 mmHg | 142.5 mmHg | 138.7 mmHg | 102.6 mmHg | 144.8 ms | 106.7 mmHg | 99.8 mmHg | 146.2 mmHg | 106 mmHg | 126.6 mmHg | 18 ms | 368.2 bpm | 146.2 mmHg | Activity (Rattus norvegicus [27]): 5 - 9%; pKb [2]: 7.52; Activity (Rattus norvegicus [28]): 114 mmHg; IC50 [11]: 1420 nM; ED50 (Rattus norvegicus [29]): 4.82 mg/kg; Activity (Rattus norvegicus [30]): 116.3 mmHg
357 nM | COc1ccc(CCNCC(O)COc2cccc3c(=O)c4ccccc4oc23)cc1OC.Cl (racemic) | 58 ms | 265.7 bpm |  |  |  |  |  |  |  | 97.4 mmHg | 138.4 ms |  | 96.2 mmHg |  | 105 mmHg | 128 mmHg | 22.7 ms | 262.7 bpm |  | Activity (Rattus norvegicus [31]): 100.7 mmHg; Kb [23]: 41.4 nM; Activity [32]: inactive; Activity (Rattus norvegicus [33]): 130.7 mmHg; inhibition (Rattus norvegicus [24]): Active; Activity (Rattus norvegicus [34]): 97.7 mmHg; IC50 [11]: 106 nM
10.8 nM | COc1ccccc1CNCC(O)COc1cccc2c(=O)c3ccccc3oc12.Cl (racemic) | 63.3 ms | 265 bpm |  |  |  |  |  |  |  | 100.6 mmHg | 129.8 ms |  | 96 mmHg |  | 107 mmHg | 126 mmHg | 22.7 ms | 246 bpm |  | Kb [23]: 114 nM; inhibition (Rattus norvegicus [24]): Active; IC50 [11]: 179 nM; Activity (Rattus norvegicus [35]): 7%
5.4 nM | CC(C)(C)NCC(O)COc1cccc2c(=O)c3ccccc3oc12.Cl (racemic) |  |  | 100 mmHg | 111 mmHg | 109.5 mmHg | 128.2 mmHg | 103.7 mmHg | 131.6 mmHg | 123 mmHg |  |  | 96.7 mmHg |  | 146.4 mmHg |  |  |  |  | 142.6 mmHg | IC50 (Blood): 82300 nM; inhibition (Blood): Dose-dependent effect; Kb [23]: 0.31 nM; Activity [32]: inactive; Activity (Rattus norvegicus [36]): 290.6 bpm; ED50 (Rattus norvegicus [29]): 1.63 mg/kg
359 nM | COc1ccccc1CCNCC(O)COc1cccc2c(=O)c3ccccc3oc12.Cl (racemic) | 52.5 ms | 390.5 bpm | 107.7 mmHg | 114.8 mmHg | 114.2 mmHg | 135 mmHg | 111.5 mmHg | 141 mmHg | 126.3 mmHg | 98.8 mmHg | 148.2 ms | 101.2 mmHg | 97.2 mmHg | 147.8 mmHg | 101.8 mmHg | 126 mmHg | 19 ms | 356 bpm | 147 mmHg | IC50 (Blood): 44800 nM; inhibition (Blood): Dose-dependent effect; pKb [2]: 8.28; Kb [23]: 21.4 nM; inhibition (Rattus norvegicus [24]): Active; IC50 [11]: 426 nM; Activity (Rattus norvegicus [25]): 5 - 11%; ED50 (Rattus norvegicus [29]): 2.2 mg/kg

From ChEMBL document CHEMBL4118148, “Design, synthesis and cardiovascular evaluation of some aminoisopropanoloxy derivatives of xanthone” (Bioorg Med Chem, 2018)
